Measured values from patent US12180187B2, “1-phenyl-5-azinylpyrazolyl-3-oxyalkyl acids and their use for controlling unwanted plant growth” (BAYER AKTIENGESELLSCHAFT, priority 2019, dated 2024).

Assays:
SETVI [1] = experiment: Pre-emergence action against SETVI, 1280 g/ha; assay type: in vivo, Setaria viridis; details: visual scoring after about 3 weeks vs untreated controls, 100% = plants have died, 0% = like control plants
Summary of the method: (§1)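 Greenhouse pre-emergence test on sown seeds in sandy loam; soil-surface spray of formulated compound with 0.5% additive at 600 L/ha water. Scored visually, % vs untreated, after about 3 weeks.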

VERPE [2] = experiment: Post-emergence action against VERPE, 1.28 kg/ha; assay type: in vivo, Veronica persica; details: dosage 1280 g/ha, visual rating about 3 weeks after treatment vs untreated controls (100% = plants died)
Summary of the method: (§2)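 Spray at one-leaf stage with WP/EC + 0.5% additive, 600 L water/ha. Greenhouse, optimum conditions, ~3 wk. Visual % control vs untreated; 0 = no effect, 100 = dead.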

LOLRI [3] = experiment: Pre-emergence action against LOLRI, 1280 g/ha; assay type: in vivo, Lolium rigidum; details: visual scoring after about 3 weeks vs untreated controls, 100% = plants have died, 0% = like control plants
Summary of the method: as §1

POAAN [4] = experiment: Pre-emergence action against POAAN, 1280 g/ha; assay type: in vivo, Poa annua; details: visual scoring after about 3 weeks vs untreated controls, 100% = plants have died, 0% = like control plants
Summary of the method: as §1

STEME [5] = experiment: Pre-emergence action against STEME, 1280 g/ha; assay type: in vivo, Stellaria media; details: scored visually after about 3 weeks vs untreated controls (100% = plants have died)
Summary of the method: as §1

POAAN [6] = experiment: Post-emergence action against POAAN, 1.28 kg/ha; assay type: in vivo, Poa annua; details: dosage 1280 g/ha, visual rating about 3 weeks after treatment vs untreated controls
Summary of the method: as §2

MATIN [7] = experiment: Pre-emergence action against MATIN, 1280 g/ha; assay type: in vivo, Tripleurospermum inodorum (Matricaria inodora); details: scored visually after about 3 weeks vs untreated controls (100% = plants have died)
Summary of the method: as §1

ALOMY [8] = experiment: Post-emergence action against ALOMY, 1.28 kg/ha; assay type: in vivo, Alopecurus myosuroides; details: dosage 1280 g/ha, visual rating about 3 weeks after treatment vs untreated controls
Summary of the method: as §2

ECHCG [9] = experiment: Pre-emergence action against ECHCG, 1280 g/ha; assay type: in vivo, Echinochloa crus-galli; details: visual scoring after about 3 weeks vs untreated controls, 100% = plants have died, 0% = like control plants
Summary of the method: as §1

MATIN [10] = experiment: Post-emergence action against MATIN, 1.28 kg/ha; assay type: in vivo, Tripleurospermum inodorum (Matricaria inodora); details: dosage 1280 g/ha, visual rating about 3 weeks after treatment vs untreated controls (100% = plants died)
Summary of the method: as §2

LOLRI [11] = experiment: Post-emergence action against LOLRI, 1.28 kg/ha; assay type: in vivo, Lolium rigidum; details: dosage 1280 g/ha, visual rating about 3 weeks after treatment vs untreated controls
Procedure: (§3) • a) Seeds of mono- and dicotyledonous weed plants are placed in plastic pots in sandy loam soil (twin sowing with one species each of mono- or dicotyledonous weed plants per pot), covered with soil and cultivated in a greenhouse under controlled growth conditions. 2 to 3 weeks after sowing, the test plants are treated at the one-leaf stage. The compounds of the invention, formulated in the form of wettable powders (WP) or as emulsion concentrates (EC), are applied to the green parts of the plants as aqueous suspension or emulsion with addition of 0.5% additive at a water application rate equivalent to 600 litres per hectare. After the test plants have been kept in the greenhouse under optimum growth conditions for about 3 weeks, the activity of the preparations is rated visually in comparison to untreated controls. For example, 100% activity=the plants have died, 0% activity=like control plants. As shown by the results, compounds of the general formula (I) of the invention, in post-emergence treatment, have very good herbicidal efficacy (90% to 100% herbicidal action) against harmful plants such as Abutilon theophrasti, Digitaria sanguinalis, Echinochloa crus-galli, Matricaria inodora, Poa annua, at an application rate of 1.28 kg of active substance per hectare.

ECHCG [12] = experiment: Post-emergence action against ECHCG, 1.28 kg/ha; assay type: in vivo, Echinochloa crus-galli; details: dosage 1280 g/ha, visual rating about 3 weeks after treatment vs untreated controls
Procedure: as §3

STEME [13] = experiment: Post-emergence action against STEME, 1.28 kg/ha; assay type: in vivo, Stellaria media; details: dosage 1280 g/ha, visual rating about 3 weeks after treatment vs untreated controls (100% = plants died)
Summary of the method: as §2

DIGSA [14] = experiment: Pre-emergence action against DIGSA, 1280 g/ha; assay type: in vivo, Digitaria sanguinalis; details: visual scoring after about 3 weeks vs untreated controls, 100% = plants have died, 0% = like control plants
Summary of the method: as §1

AMARE [15] = experiment: Post-emergence action against AMARE, 1.28 kg/ha; assay type: in vivo, Amaranthus retroflexus; details: dosage 1280 g/ha, visual rating about 3 weeks after treatment vs untreated controls (100% = plants died)
Summary of the method: as §2

AMARE [16] = experiment: Pre-emergence action against AMARE, 1280 g/ha; assay type: in vivo, Amaranthus retroflexus; details: scored visually after about 3 weeks vs untreated controls (100% = plants have died)
Summary of the method: as §1

VERPE [17] = experiment: Pre-emergence action against VERPE, 1280 g/ha; assay type: in vivo, Veronica persica; details: scored visually after about 3 weeks vs untreated controls (100% = plants have died)
Summary of the method: as §1

ABUTH = experiment: Post-emergence action against ABUTH, 1.28 kg/ha; assay type: in vivo, Abutilon theophrasti; details: dosage 1280 g/ha, visual rating about 3 weeks after treatment vs untreated controls (100% = plants died)
Procedure: as §3

DIGSA [18] = experiment: Post-emergence action against DIGSA, 1.28 kg/ha; assay type: in vivo, Digitaria sanguinalis; details: dosage 1280 g/ha, visual rating about 3 weeks after treatment vs untreated controls
Summary of the method: as §2

SETVI [19] = experiment: Post-emergence action against SETVI, 1.28 kg/ha; assay type: in vivo, Setaria viridis; details: dosage 1280 g/ha, visual rating about 3 weeks after treatment vs untreated controls
Procedure: as §3

ALOMY [20] = experiment: Pre-emergence action against ALOMY, 1280 g/ha; assay type: in vivo, Alopecurus myosuroides; details: visual scoring after about 3 weeks vs untreated controls, 100% = plants have died, 0% = like control plants
Summary of the method: as §1

ALOMY [21] = experiment: Pre-emergence action at 320 g/ha against ALOMY; assay type: in vivo, Alopecurus myosuroides; details: scored visually after about 3 weeks vs untreated controls (100% = plants have died)
Text: (§4) b) Seeds of monocotyledonous and dicotyledonous weed plants and crop plants are placed in plastic or organic planting pots and covered with soil. The compounds of the invention, formulated in the form of wettable powders (WP) or as emulsion concentrates (EC), are then applied onto the surface of the covering soil as aqueous suspension or emulsion with addition of 0.5% additive at a water application rate of 600 l/ha (converted). After the treatment, the pots are placed in a greenhouse and kept under good growth conditions for the trial plants. After about 3 weeks, the effect of the preparations is scored visually in comparison with untreated controls as percentages. For example, 100% activity=the plants have died, 0% activity=like control plants. Tables 13 to 26 below show the effects of selected compounds of the general formula (I) on various harmful plants and at an application rate corresponding to 320 g/ha, which were obtained by the experimental procedure mentioned above.

VIOTR = experiment: Pre-emergence action at 320 g/ha against VIOTR; assay type: in vivo, Viola tricolor; details: dosage 320 g/ha
Text: as §4

AVEFA = experiment: Pre-emergence action at 320 g/ha against AVEFA; assay type: in vivo; details: visual scoring after about 3 weeks vs untreated controls
Text: as §4

AMARE [22] = experiment: Pre-emergence action at 320 g/ha against AMARE; assay type: in vivo, Amaranthus retroflexus; details: visual scoring after about 3 weeks vs untreated controls
Text: as §4

DIGSA [23] = experiment: Pre-emergence action at 320 g/ha against DIGSA; assay type: in vivo, Digitaria sanguinalis; details: visual scoring after about 3 weeks vs untreated controls
Text: as §4

VERPE [24] = experiment: Pre-emergence action at 320 g/ha against VERPE; assay type: in vivo, Veronica persica; details: visual scoring after about 3 weeks vs untreated controls
Text: as §4

POLCO = experiment: Pre-emergence action at 320 g/ha against POLCO; assay type: in vivo, Fallopia convolvulus (Polygonum convolvulus); details: visual scoring after about 3 weeks vs untreated controls
Text: as §4

MATIN [25] = experiment: Pre-emergence action at 320 g/ha against MATIN; assay type: in vivo, Tripleurospermum inodorum (Matricaria inodora); details: visual scoring after about 3 weeks vs untreated controls
Text: as §4

SETVI [26] = experiment: Pre-emergence action at 320 g/ha against SETVI; assay type: in vivo, Setaria viridis; details: visual scoring after about 3 weeks vs untreated controls
Text: as §4

LOLRI [27] = experiment: Pre-emergence action at 320 g/ha against LOLRI; assay type: in vivo, Lolium rigidum; details: visual scoring after about 3 weeks vs untreated controls
Text: as §4

Structure (SMILES) | Pre-emergence action against SETVI (SETVI [1]) | Post-emergence action against VERPE (VERPE [2]) | Pre-emergence action against LOLRI (LOLRI [3]) | Pre-emergence action against POAAN (POAAN [4]) | Pre-emergence action against STEME (STEME [5]) | Post-emergence action against POAAN (POAAN [6]) | Pre-emergence action against MATIN (MATIN [7]) | Post-emergence action against ALOMY (ALOMY [8]) | Pre-emergence action against ECHCG (ECHCG [9]) | Post-emergence action against MATIN (MATIN [10]) | Post-emergence action against LOLRI (LOLRI [11]) | Post-emergence action against ECHCG (ECHCG [12]) | Post-emergence action against STEME (STEME [13]) | Pre-emergence action against DIGSA (DIGSA [14]) | Post-emergence action against AMARE (AMARE [15]) | Pre-emergence action against AMARE (AMARE [16]) | Pre-emergence action against VERPE (VERPE [17]) | Post-emergence action against ABUTH (ABUTH) | Post-emergence action against DIGSA (DIGSA [18]) | Post-emergence action against SETVI (SETVI [19]) | further results
O=C(COc1nn(-c2ccccc2F)c(-c2ccc(F)nc2)c1C(F)(F)F)NS(=O)(=O)CC(F)(F)F [Example X-006] | 100% | 90% | 100% | 100% | 100% | 100% | 100% | 100% | 100% | 100% | 90% | 100% | 100% | 100% | 100% | 100% | 100% | 90% | 90% |  | 
O=C(O)CNC(=O)COc1nn(-c2ccccc2F)c(-c2ccc(F)nc2)c1C(F)(F)F [Example X-026] | 100% | 90% | 100% | 100% | 100% | 100% | 100% | 100% | 100% | 100% | 90% |  | 100% | 100% | 90% | 100% | 100% | 90% | 100% | 100% | Pre-emergence action against ALOMY (ALOMY [20]): 100%
O=C(COc1nn(-c2ccccc2F)c(-c2cncnc2)c1Br)OCc1ccccc1 [VI-002] | 100% | 90% | 100% | 100% | 100% | 100% | 90% |  | 100% | 100% | 100% | 100% | 90% |  | 90% | 100% | 90% | 90% |  | 90% | 
Cc1ccc(-n2nc(OCC(=O)O)c(Br)c2-c2ccc(F)nc2)cc1 [VII-067] | 100% |  | 100% | 100% | 100% | 100% | 100% |  | 100% | 90% | 100% | 100% |  | 100% | 100% | 100% | 100% |  | 100% |  | Pre-emergence action against ALOMY (ALOMY [20]): 100%
O=C(COc1nn(-c2ccccc2F)c(-c2ccc(F)nc2)c1Br)OCC1CCCO1 (centres unmarked) [VII-090] | 100% | 100% | 100% | 100% | 100% | 100% | 100% |  | 100% | 90% | 90% | 100% |  | 100% |  | 100% | 100% |  | 100% |  | Pre-emergence action against ALOMY (ALOMY [20]): 100%
Cc1ccccc1-n1nc(OCC(=O)O)c(I)c1-c1ccc(F)nc1 [VII-097] | 100% | 100% | 100% | 100% | 100% | 100% | 90% | 100% | 100% | 90% | 90% | 100% | 90% | 100% |  | 100% | 100% |  | 100% | 90% | 
CCOC(=O)COc1nn(-c2ccccc2)c(-c2ccc(F)nc2)c1Br [VII-116] |  |  |  |  |  |  |  |  |  |  |  |  |  |  |  |  |  |  |  |  | Pre-emergence action at 320 g/ha against ALOMY in % (ALOMY [21]): 100%; Pre-emergence action against VIOTR in % (VIOTR): 90%; Pre-emergence action against AVEFA in % (AVEFA): 90%; Pre-emergence action against AMARE in % (AMARE [22]): 100%; Pre-emergence action against DIGSA in % (DIGSA [23]): 100%; Pre-emergence action against VERPE in % (VERPE [24]): 100%; Pre-emergence action against POLCO in % (POLCO): 90%; Pre-emergence action against MATIN in % (MATIN [25]): 90%; Pre-emergence action against SETVI in % (SETVI [26]): 100%; Pre-emergence action against LOLRI in % (LOLRI [27]): 100%
COC(=O)C(C)Oc1nn(-c2ccccc2)c(-c2ccnc(F)c2)c1Cl (centres unmarked) [VIII-007] | 100% | 100% | 100% | 100% | 90% | 100% | 90% |  | 100% | 90% | 100% | 90% | 100% | 90% | 100% | 100% | 100% | 90% | 90% |  | 
